This note sets out measurements from paper PMC6254336, “Structural and functional characterization of IdiA/FutA (Tery_3377), an iron-binding protein from the ocean diazotroph Trichodesmium erythraeum” (The Journal of Biological Chemistry, 2018).

For the experiment, the target named is T1, Tery_3377 (IdiA/FutA) (Trichodesmium erythraeum, UniProt Q10Z45).
T1 construct: mature protein, predicted signal peptide (residues 1-31) removed, C-terminal His6 tag, pET21a(+), E. coli BL21(DE3); two monomers per asymmetric unit
T1 sequence (Q10Z45 entry or part of it): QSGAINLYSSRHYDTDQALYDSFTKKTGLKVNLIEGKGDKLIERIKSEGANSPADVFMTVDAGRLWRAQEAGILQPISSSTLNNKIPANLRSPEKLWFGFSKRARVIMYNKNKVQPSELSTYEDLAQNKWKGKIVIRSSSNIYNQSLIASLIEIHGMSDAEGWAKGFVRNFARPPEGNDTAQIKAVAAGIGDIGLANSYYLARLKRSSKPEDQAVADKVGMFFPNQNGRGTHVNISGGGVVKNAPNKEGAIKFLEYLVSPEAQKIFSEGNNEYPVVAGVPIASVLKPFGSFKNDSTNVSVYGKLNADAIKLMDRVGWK
Briefly: X-ray crystal structure, […] Å. The note with it: two citrates bound in the substrate-binding cleft together with one Fe3+ that they coordinate, about 7 Å from the empty iron site; protein citrate-treated before crystallisation; carboxylic acids mix.

Turning to `O=C(O)CC(O)(CC(=O)O)C(=O)O` [citrate], the “X-ray crystal structure, 1.2 Å” value was “traps the citrate molecule with bound iron in the substrate-binding cleft”.
